Assay results: EP4722203A1, “3,4-DIHYDROPHTHALAZIN-1(2H)-ONE DERIVATIVE, AND PREPARATION METHOD THEREFOR AND USE THEREOF” (Academy of Military Medical Sciences, priority 2023, dated 2024)

Tested on: human multiple myeloma NCI-H929 xenograft tumors
Test: In vivo activity of combination therapy with bortezomib or tazemetostat against NCI-H929 transplanted tumor
Design: species or system NOD/SCID mice
Settings: I-8 3 mg/kg QD
Experimental: In this example, the human multiple myeloma NCI-H929 cell line was selected as the cell model to determine the inhibitory effects of compounds, bortezomib (Bort), and tazemetostat (Taze), as single drugs and in combination, on the growth of NOD/SCID mouse transplanted tumors of NCI-H929 tumor cells. The evaluation methods and results are described below.
Human multiple myeloma NCI-H929 cells were routinely cultured in RPMI1640 containing 10% fetal bovine serum at 37°C in a 5% CO2 incubator. After three passages in vitro, when the cells reached over 80% confluence and the required confluence rate, the cells were digested and harvested. After washing with PBS, the cells were counted and the cell concentration was adjusted to approximately 5 × 10^7 cells/mL. The cells were then placed in 4 mL centrifuge tubes on ice for later use.
Female NOD/SCID mice aged 4-5 weeks were selected and subcutaneously inoculated with NCI-H929 cells ectopically. The mice were held in a lateral position, the forelimb axilla was disinfected with 75% alcohol, and 100 µL of the cell suspension was injected subcutaneously into the axilla using a 1 mL syringe ([…]/100 µL).
After the tumors grew to 90-150 mm^3, the animals were randomly divided into groups, 8 mice in each group, and administered according to different administration methods as follows: • Model control group: Administered with the same volume of Vehicle (DMSO: 0.5% sodium carboxymethyl cellulose: distilled water = 1:1:8) daily by gavage; • Test group 1: administered with I-8 solution at 3 mg/kg (mouse body weight) daily by gavage; • Test group 2: administered with bortezomib (Bort) solution at 1 mg/kg (mouse body weight) twice weekly by gavage; • Test group 3: administered with tazemetostat solution at 100 mg/kg (mouse body weight) daily by gavage; • Test group 4: administered with I-8 at 3 mg/kg (mouse body weight) daily by gavage and bortezomib (Bort) solution at 1 mg/kg (mouse body weight) twice weekly by gavage; • Test group 5: administered with I-8 at 3 mg/kg (mouse body weight) daily by gavage and tazemetostat (Taze) solution at 100 mg/kg (mouse body weight) daily by gavage;
The route of administration was oral gavage, and the administration frequency was once daily, for 10 consecutive days. The first day of administration was defined as Day 1 of the experiment. Tumor volume changes in mice were measured and recorded every two days. Tumor volume was measured using a vernier caliper, in which the major axis (a) and minor axis (b) of the tumor were measured, and the tumor volume was calculated as tumor volume V (mm^3) = a x b^2/2. After the experiment, the mice were dissected and the tumor weight was measured. The data were entered and statistically analyzed using GraphPad Prism 6 software. The data are expressed as mean ± SEM (Standard Error of Mean), and one-way ANOVA was used. P ≤ 0.05 was considered statistically significant.

CN1Cc2c(NCc3ccc(CN4CCN(c5ccc(C#N)c(F)c5)CC4)cc3)cccc2C(=O)N1C1CCC(=O)NC1=O (stereo not shown) [I-8]
Average volume (mm^3) (Day 10) (Day 10, Bort 1 mg/kg BIW, Taze 100 mg/kg QD, combinations given as + Bort 3 mg/kg BIW / + Taze 3 mg/kg QD): 498.6 mm^3 | Tumor inhibition rate TGI (%) (Bort 1 mg/kg BIW, Taze 100 mg/kg QD, combinations given as + Bort 3 mg/kg BIW / + Taze 3 mg/kg QD): 77.24% | growth of NCI-H929 transplanted tumors (in words) (bortezomib 1 mg/kg BIW, tazemetostat 100 mg/kg QD, alone or combined): effectively inhibits the growth | Initial volume (mm^3) (baseline, Bort 1 mg/kg BIW, Taze 100 mg/kg QD, combinations given as + Bort 3 mg/kg BIW / + Taze 3 mg/kg QD): 120.7 mm^3
